Results as given in patent US20090156517A1, “STABLE PHARMACEUTICAL COMPOSITIONS OF AMINOGLYCOSIDE ANTIBIOTICS, ION-CHELATING AGENTS, AND BUFFERS” (priority 2006, published 2009).
Each block holds one compound with its values, some of them ahead of it.

Experiment: Amounts of antibiotic components in the solution over time (reverse-phase LC/UV for β-lactams and β-lactamase inhibitors, HPLC/evaporation-light-scattering for aminoglycosides)
Format: physicochemical
Protocol: The amounts of β-lactam antibiotics and β-lactamase inhibitor were determined using C18 reverse-phase LC and UV-VIS detector (Tianjin […] Co., Ltd., analysis method No. HM-K-03). The content of aminoglycoside antibiotics was measured using reverse-phase HPLC and evaporation-light-scattering detector (Tianjin […] Co., Ltd., analysis method No. HM-K-08). […] The relative amount of each antibiotic component in the composition at each time point was expressed as peak area ratio with respect to the corresponding peak area of an external standard.

[1] = Example 6 solution (cefoperazone sodium, sulbactam sodium, etimicin sulfate, disodium EDTA, sodium citrate pH 6.5), room temperature, 0 h
[2] = Example 6 solution (cefoperazone sodium, sulbactam sodium, etimicin sulfate, disodium EDTA, sodium citrate pH 6.5), room temperature, 1 h
[3] = Example 6 solution (cefoperazone sodium, sulbactam sodium, etimicin sulfate, disodium EDTA, sodium citrate pH 6.5), room temperature, 2 h
[4] = Example 6 solution (cefoperazone sodium, sulbactam sodium, etimicin sulfate, disodium EDTA, sodium citrate pH 6.5), room temperature, 4 h
[5] = Example 6 solution (cefoperazone sodium, sulbactam sodium, etimicin sulfate, disodium EDTA, sodium citrate pH 6.5), room temperature, 6 h
[6] = Example 6 solution (cefoperazone sodium, sulbactam sodium, etimicin sulfate, disodium EDTA, sodium citrate pH 6.5), room temperature, 8 h
[7] = Example 14: cefoperazone sodium/tazobactam sodium solution pH 6.75, etimicin sulfate added, 0 h
[8] = Example 14: cefoperazone sodium/tazobactam sodium solution pH 6.75, etimicin sulfate added, 1 h
[9] = Example 14: cefoperazone sodium/tazobactam sodium solution pH 6.75, etimicin sulfate added, 2 h
[10] = Example 14: cefoperazone sodium/tazobactam sodium solution pH 6.75, etimicin sulfate added, 4 h
[11] = Example 14: cefoperazone sodium/tazobactam sodium solution pH 6.75, etimicin sulfate added, 6 h
[12] = Example 14: cefoperazone sodium/tazobactam sodium solution pH 6.75, etimicin sulfate added, 8 h
[13] = Example 7 solution (ceftriaxone sodium, sulbactam sodium, etimicin sulfate, disodium EDTA, sodium citrate pH 6.5), room temperature, 0 h
[14] = Example 7 solution (ceftriaxone sodium, sulbactam sodium, etimicin sulfate, disodium EDTA, sodium citrate pH 6.5), room temperature, 1 h
[15] = Example 7 solution (ceftriaxone sodium, sulbactam sodium, etimicin sulfate, disodium EDTA, sodium citrate pH 6.5), room temperature, 2 h
[16] = Example 7 solution (ceftriaxone sodium, sulbactam sodium, etimicin sulfate, disodium EDTA, sodium citrate pH 6.5), room temperature, 4 h
[17] = Example 7 solution (ceftriaxone sodium, sulbactam sodium, etimicin sulfate, disodium EDTA, sodium citrate pH 6.5), room temperature, 6 h
[18] = Example 7 solution (ceftriaxone sodium, sulbactam sodium, etimicin sulfate, disodium EDTA, sodium citrate pH 6.5), room temperature, 8 h

Amount of component, percentage of amount at initial time (Example 9: amikacin sulfate/disodium EDTA/citrate pH 6.5 solution with fructose stored 7 days at minus 20° C., thawed, cefodizime sodium added, 0 h): 96.88% | Amount of component, percentage of amount at initial time (Example 9: amikacin sulfate/disodium EDTA/citrate pH 6.5 solution with fructose stored 7 days at minus 20° C., thawed, cefodizime sodium added, 1 h): 97.78% | Amount of component, percentage of amount at initial time (Example 9: amikacin sulfate/disodium EDTA/citrate pH 6.5 solution with fructose stored 7 days at minus 20° C., thawed, cefodizime sodium added, 2 h): 96.14% | Amount of component, percentage of amount at initial time (Example 9: amikacin sulfate/disodium EDTA/citrate pH 6.5 solution with fructose stored 7 days at minus 20° C., thawed, cefodizime sodium added, 4 h): 96.88% | Amount of component, percentage of amount at initial time (Example 9: amikacin sulfate/disodium EDTA/citrate pH 6.5 solution with fructose stored 7 days at minus 20° C., thawed, cefodizime sodium added, 6 h): 98.34% | Amount of component, percentage of amount at initial time (Example 9: amikacin sulfate/disodium EDTA/citrate pH 6.5 solution with fructose stored 7 days at minus 20° C., thawed, cefodizime sodium added, 8 h): 98.11% | Amount of component, percentage of amount at initial time (Example 12: thawed solution from Example 10, pH 6.0, amikacin sulfate added, no EDTA, 0 h): 86.05% | Amount of component, percentage of amount at initial time (Example 12: thawed solution from Example 10, pH 6.0, amikacin sulfate added, no EDTA, 1 h): 83.57% | Amount of component, percentage of amount at initial time (Example 12: thawed solution from Example 10, pH 6.0, amikacin sulfate added, no EDTA, 2 h): 81.55% | Amount of component, percentage of amount at initial time (Example 12: thawed solution from Example 10, pH 6.0, amikacin sulfate added, no EDTA, 4 h): 80.55% | Amount of component, percentage of amount at initial time (Example 12: thawed solution from Example 10, pH 6.0, amikacin sulfate added, no EDTA, 6 h): 85.75% | Amount of component, percentage of amount at initial time (Example 12: thawed solution from Example 10, pH 6.0, amikacin sulfate added, no EDTA, 8 h): 83.83%
SMILES: NCC[C@H](O)C(=O)N[C@@H]1C[C@H](N)[C@@H](O[C@H]2O[C@H](CN)[C@@H](O)[C@H](O)[C@H]2O)[C@H](O)[C@H]1O[C@H]1O[C@H](CO)[C@@H](O)[C@H](N)[C@H]1O [Amikacin, amikacin]

Amount of component, percentage of amount at initial time (Example 4 solution (cefoperazone sodium, sulbactam sodium, gentamicin, sodium citrate pH 6.75, no EDTA), room temperature, 0 h): 101.4% | Amount of component, percentage of amount at initial time (Example 4 solution (cefoperazone sodium, sulbactam sodium, gentamicin, sodium citrate pH 6.75, no EDTA), room temperature, 1 h): 98.66% | Amount of component, percentage of amount at initial time (Example 4 solution (cefoperazone sodium, sulbactam sodium, gentamicin, sodium citrate pH 6.75, no EDTA), room temperature, 2 h): 98.79% | Amount of component, percentage of amount at initial time (Example 4 solution (cefoperazone sodium, sulbactam sodium, gentamicin, sodium citrate pH 6.75, no EDTA), room temperature, 4 h): 101.5% | Amount of component, percentage of amount at initial time (Example 4 solution (cefoperazone sodium, sulbactam sodium, gentamicin, sodium citrate pH 6.75, no EDTA), room temperature, 6 h): 107.4% | Amount of component, percentage of amount at initial time (Example 5 solution (cefoperazone sodium, sulbactam sodium, gentamicin, disodium EDTA, sodium citrate pH 6.75), room temperature, 0 h): 101.4% | Amount of component, percentage of amount at initial time (Example 5 solution (cefoperazone sodium, sulbactam sodium, gentamicin, disodium EDTA, sodium citrate pH 6.75), room temperature, 1 h): 98.66% | Amount of component, percentage of amount at initial time (Example 5 solution (cefoperazone sodium, sulbactam sodium, gentamicin, disodium EDTA, sodium citrate pH 6.75), room temperature, 2 h): 98.79% | Amount of component, percentage of amount at initial time (Example 5 solution (cefoperazone sodium, sulbactam sodium, gentamicin, disodium EDTA, sodium citrate pH 6.75), room temperature, 4 h): 101.5% | Amount of component, percentage of amount at initial time (Example 5 solution (cefoperazone sodium, sulbactam sodium, gentamicin, disodium EDTA, sodium citrate pH 6.75), room temperature, 6 h): 107.4% | Amount of component, percentage of amount at initial time [1]: 110.4% | Amount of component, percentage of amount at initial time [2]: 99.48% | Amount of component, percentage of amount at initial time [3]: 101.3% | Amount of component, percentage of amount at initial time [4]: 98.66% | Amount of component, percentage of amount at initial time [5]: 98.02% | Amount of component, percentage of amount at initial time [6]: 99.30% | Amount of component, percentage of amount at initial time (Example 14: cefoperazone sodium/tazobactam sodium solution pH 6.75, disodium EDTA and amikacin sulfate added, room temperature, 0 h): 100.2% | Amount of component, percentage of amount at initial time (Example 14: cefoperazone sodium/tazobactam sodium solution pH 6.75, disodium EDTA and amikacin sulfate added, room temperature, 1 h): 99.0% | Amount of component, percentage of amount at initial time (Example 14: cefoperazone sodium/tazobactam sodium solution pH 6.75, disodium EDTA and amikacin sulfate added, room temperature, 2 h): 99.0% | Amount of component, percentage of amount at initial time (Example 14: cefoperazone sodium/tazobactam sodium solution pH 6.75, disodium EDTA and amikacin sulfate added, room temperature, 4 h): 96.2% | Amount of component, percentage of amount at initial time (Example 14: cefoperazone sodium/tazobactam sodium solution pH 6.75, disodium EDTA and amikacin sulfate added, room temperature, 6 h): 94.5% | Amount of component, percentage of amount at initial time (Example 14: cefoperazone sodium/tazobactam sodium solution pH 6.75, disodium EDTA and amikacin sulfate added, room temperature, 8 h): 95.3% | Amount of component, percentage of amount at initial time [7]: 100.2% | Amount of component, percentage of amount at initial time [8]: 99.0% | Amount of component, percentage of amount at initial time [9]: 99.0% | Amount of component, percentage of amount at initial time [10]: 96.2% | Amount of component, percentage of amount at initial time [11]: 94.5% | Amount of component, percentage of amount at initial time [12]: 95.3%
SMILES: CCN1CCN(C(=O)N[C@@H](C(=O)N[C@@H]2C(=O)N3C(C(=O)O)=C(CSc4nnnn4C)CS[C@H]23)c2ccc(O)cc2)C(=O)C1=O [Cefoperazone sodium, cefoperazone sodium]

Amount of component, percentage of amount at initial time [13]: 97.01% | Amount of component, percentage of amount at initial time [14]: 100.3% | Amount of component, percentage of amount at initial time [15]: 96.40% | Amount of component, percentage of amount at initial time [16]: 99.01% | Amount of component, percentage of amount at initial time [17]: 98.91% | Amount of component, percentage of amount at initial time [18]: 99.53% | Amount of component, percentage of amount at initial time (Example 8 solution (ceftriaxone sodium, tazobactam sodium, gentamicin sulfate, sodium citrate pH 6.75), room temperature, 0 h): 98.75% | Amount of component, percentage of amount at initial time (Example 8 solution (ceftriaxone sodium, tazobactam sodium, gentamicin sulfate, sodium citrate pH 6.75), room temperature, 1 h): 100.1% | Amount of component, percentage of amount at initial time (Example 8 solution (ceftriaxone sodium, tazobactam sodium, gentamicin sulfate, sodium citrate pH 6.75), room temperature, 2 h): 99.97% | Amount of component, percentage of amount at initial time (Example 8 solution (ceftriaxone sodium, tazobactam sodium, gentamicin sulfate, sodium citrate pH 6.75), room temperature, 4 h): 98.87% | Amount of component, percentage of amount at initial time (Example 8 solution (ceftriaxone sodium, tazobactam sodium, gentamicin sulfate, sodium citrate pH 6.75), room temperature, 6 h): 99.27% | Amount of component, percentage of amount at initial time (Example 8 solution (ceftriaxone sodium, tazobactam sodium, gentamicin sulfate, sodium citrate pH 6.75), room temperature, 8 h): 100.5%
SMILES: CO/N=C(\C(=O)N[C@@H]1C(=O)N2C(C(=O)O)=C(CSc3nc(=O)c(=O)[nH]n3C)CS[C@H]12)c1csc(N)n1 [Ceftriaxone sodium, ceftriaxone sodium]

Amount of component, percentage of amount at initial time [1]: 108.9% | Amount of component, percentage of amount at initial time [2]: 100.2% | Amount of component, percentage of amount at initial time [3]: 100.5% | Amount of component, percentage of amount at initial time [4]: 100.4% | Amount of component, percentage of amount at initial time [5]: 100.4% | Amount of component, percentage of amount at initial time [6]: 97.50% | Amount of component, percentage of amount at initial time [13]: 100.7% | Amount of component, percentage of amount at initial time [14]: 101.0% | Amount of component, percentage of amount at initial time [15]: 101.0% | Amount of component, percentage of amount at initial time [16]: 101.0% | Amount of component, percentage of amount at initial time [17]: 100.8% | Amount of component, percentage of amount at initial time [18]: 100.7% | Amount of component, percentage of amount at initial time (Example 11: solution of Example 10 freeze-dried, stored 7 days at 0° C., redissolved, pH 6.0, etimicin sulfate and disodium EDTA added, 0 h): 94.81% | Amount of component, percentage of amount at initial time (Example 11: solution of Example 10 freeze-dried, stored 7 days at 0° C., redissolved, pH 6.0, etimicin sulfate and disodium EDTA added, 1 h): 99.66% | Amount of component, percentage of amount at initial time (Example 11: solution of Example 10 freeze-dried, stored 7 days at 0° C., redissolved, pH 6.0, etimicin sulfate and disodium EDTA added, 2 h): 100.9% | Amount of component, percentage of amount at initial time (Example 11: solution of Example 10 freeze-dried, stored 7 days at 0° C., redissolved, pH 6.0, etimicin sulfate and disodium EDTA added, 4 h): 101.5% | Amount of component, percentage of amount at initial time (Example 11: solution of Example 10 freeze-dried, stored 7 days at 0° C., redissolved, pH 6.0, etimicin sulfate and disodium EDTA added, 6 h): 96.97% | Amount of component, percentage of amount at initial time (Example 11: solution of Example 10 freeze-dried, stored 7 days at 0° C., redissolved, pH 6.0, etimicin sulfate and disodium EDTA added, 8 h): 94.44% | Amount of component, percentage of amount at initial time [7]: 100% | Amount of component, percentage of amount at initial time [8]: 98.8% | Amount of component, percentage of amount at initial time [9]: 97.5% | Amount of component, percentage of amount at initial time [10]: 98.4% | Amount of component, percentage of amount at initial time [11]: 95.6% | Amount of component, percentage of amount at initial time [12]: 92.8%
SMILES: CCN[C@@H]1C[C@H](N)[C@@H](O[C@H]2O[C@H](CN)CC[C@H]2N)[C@H](O)[C@H]1O[C@H]1OC[C@](C)(O)[C@H](NC)[C@H]1O [Etimicin, etimicin]
